Measurements published in ChEMBL document CHEMBL2073755, “TP-search Transporter Database” (Jpn Pharmacol Ther, 2001).

B1: Solute carrier family 22 member 7 (Rattus norvegicus) (protein)
chain: MGFEDLLDKVGGFGPFQLRNLVLMALPRMLLPMHFLLPVFMAAVPAHHCALPGAPANLSHQDLWLEAHLPRETDGSFSSCLRFAYPQTVPNVTLGTEVSNSGEPEGEPLTVPCSQGWEYDRSEFSSTIATEWDLVCQQRGLNKITSTCFFIGVLVGAVVYGYLSDRFGRRRLLLVAYVSSLVLGLMSAASINYIMFVVTRTLTGSALAGFTIIVLPLELEWLDVEHRTVAGVISTVFWSGGVLLLALVGYLIRSWRWLLLAATLPCVPGIISIWWVPESARWLLTQGRVEEAKKYLLSCAKLNGRPVGEGSLSQEALNNVVTMERALQRPSYLDLFRTSQLRHISLCCMMVWFGVNFSYYGLTLDVSGLGLNVYQTQLLFGAVELPSKIMVYFLVRRLGRRLTEAGMLLGAALTFGTSLLVSLETKSWITALVVVGKAFSEAAFTTAYLFTSELYPTVLRQTGLGLTALMGRLGASLAPLAALLDGVWLLLPKVAYGGIALVAACTALLLPETKKAQLPETIQDVERKSTQEEDV

Tests used:
[1] = molecular target: T1, Solute carrier family 22 member 7 (Rattus norvegicus, UniProt Q5RLM2); test: TP_TRANSPORTER: inhibition of Salicylate uptake in Oat2-expressing LLC PK1 cells; type: functional, cell-based
T1 sequence (Q5RLM2 whole entry): B1 chain

[2] = molecular target: T2, Oat2 (Solute carrier family 22 member 7) (Rattus norvegicus, UniProt Q5RLM2); test: (§1) TP_TRANSPORTER: uptake in Oat2-expressing LLC PK1 cells; type: functional, cell-based; conditions: pig
T2 sequence (Q5RLM2 whole entry): B1 chain

[3] = substrate: O=C(O)c1ccccc1O; test: cells, lysate or membranes named
[4] = substrate: Nc1ccn([C@H]2CC[C@@H](CO)O2)c(=O)n1; test: as §1; type: functional, cell-based

Row | Molecule | Ki [1] | Km [2] | also measured
1 | COc1ccc(Cl)cc1C(=O)NCCc1ccc(S(=O)(=O)NC(=O)NC2CCCCC2)cc1 [GLYBURIDE] | 12300 nM | – | –
2 | CC1(C)C(/C=C/C=C/C=C/C=C2\N(CCCCS(=O)(=O)O)c3ccc4ccccc4c3C2(C)C)=[N+](CCCCS(=O)(=O)[O-])c2ccc3ccccc3c21 [INDOCYANINE GREEN] | 1150 nM | – | –
3 | COc1ccc2c(c1)c(CC(=O)O)c(C)n2C(=O)c1ccc(Cl)cc1 [INDOMETHACIN] | – | 0.366 µM | –
4 | CC(C(=O)O)c1cccc(C(=O)c2ccccc2)c1 (configuration not stated) [KETOPROFEN] | 1840 nM | – | –
5 | Cc1cn([C@H]2C[C@H](N=[N+]=[N-])[C@@H](CO)O2)c(=O)[nH]c1=O [ZIDOVUDINE] | – | 26 µM | –
6 | B1 | – | – | Km [3]: 81.2 µM; Km [4]: 3000 µM
